Reference: patent US20170101521A1, “THERMAL BASE GENERATOR, THERMOSETTING RESIN COMPOSITION, CURED FILM, CURED FILM MANUFACTURING METHOD, AND SEMICONDUCTOR DEVICE” (FUJIFILM Corporation, priority 2014, published 2017)

Columns and labels:
[1] = Base generation temperature by differential scanning calorimetry; assay type: physicochemical; conditions: DSC, heated to 250° C. at 5° C./min in pressure-resistant capsule; peak temperature of lowest exothermic peak
Description: The base generation temperature may be measured, for example, by heating a compound to 250° C. at a rate of 5° C./minute in a pressure-resistant capsule, reading a peak temperature of an exothermic peak having the lowest temperature, and taking the peak temperature as a base generation temperature, using differential scanning calorimetry.
Using differential scanning calorimetry (Q2000, manufactured by TA), (A) a thermal base generator was heated to 250° C. at 5° C./min in a pressure-resistant capsule. The peak temperature of an exothermic peak having the lowest temperature was read to measure such a peak temperature as a base generation temperature.

[2] = literature value, or calculated with ACD/pKa for compounds not listed; cited from earlier work

| Compound | Base generation temperature [1] | pKa1 of anion [2] |
| --- | --- | --- |
| CC[N+](CC)(CC)C(c1ccccc1)c1ccccc1.O=C([O-])C(=O)O [A-36] | 170 °C | 1.2 |
| C1CN2CCN1CC2.O=C(O)C(=O)O [A-33] | 70 °C | 1.2 |
| C1CCC2=[N+](CC1)CCCN2.O=C([O-])C(=O)O [A-34] | 80 °C | 1.2 |
| O=C(O)CN(CC(=O)O)c1ccc(-c2ccccc2)cc1 [A-4] | 150 °C |  |
| CCN(CC)CC.O=C(O)CCC(=O)O [A-13] | 170 °C |  |
| O=C(C[n+]1ccccc1)c1ccccc1.O=C([O-])C(=O)O [A-27] | 140 °C | 1.2 |
| CCCCCCCCCCCC[N+](C)(C)CC(=O)c1ccccc1.O=C([O-])C(=O)O [A-21] | 150 °C | 1.2 |
| O=C(C[N+]1=C2CCCCCN2CCC1)c1ccccc1.O=C([O-])C(=O)O [A-28] | 140 °C | 1.2 |
| O=C(C[N+]12CCN(CC1)CC2)c1ccccc1.O=C([O-])C(=O)O [A-31] | 140 °C | 1.2 |
| CCCCCCCCCCCC[N+](C)(C)CC(=O)c1ccccc1.O=C([O-])CCC(=O)O [A-22] | 130 °C | 4.2 |
| C[N+]1(C)CCCCC1.O=C([O-])C(=O)O [A-32] | 190 °C | 1.2 |
| O=C(O)CN(CC(=O)O)c1ccccc1 [A-1] | 145 °C |  |
| COc1ccc(N(CC(=O)O)CC(=O)O)cc1 [A-3] | 140 °C |  |
| C1CCC2=[N+](CC1)CCCN2.O=C([O-])CCC(=O)O [A-12] | 150 °C |  |
| C[n+]1ccccc1.O=C([O-])C(=O)O [A-37] | 180 °C | 1.2 |
| C[N+]1(CC(=O)c2ccccc2)CCCCC1.O=C([O-])C(=O)O [A-30] | 140 °C | 1.2 |
| O=C(C[N+]1=C2CCCN2CCC1)c1ccccc1.O=C([O-])C(=O)O [A-29] | 140 °C | 1.2 |
| Cc1ccc(N(CC(=O)O)CC(=O)O)cc1 [A-2] | 140 °C |  |

Now from value to compound, other results behind:

| Base generation temperature [1] | Compound | pKa1 of anion [2] |
| --- | --- | --- |
| 150 °C | CCCCCC[N+](C)(C)CC(=O)c1ccccc1.O=C([O-])/C=C\C(=O)O [A-38] | 1.9 |
| Lower than 40 °C | C1CNC2=[N+](C1)CCCN2.O=C([O-])/C=C\C(=O)O [X-9, reference compound] |  |
| 130 °C | O=C(O)CN(CC(=O)Nc1ccccc1)c1ccccc1 [A-16] |  |
| 200 °C | O=C(O)CC(Nc1ccccc1)C(=O)O (stereo not drawn) [A-11] |  |
| 200 °C | Cc1ccc(NC(CC(=O)O)C(=O)O)cc1 (stereo not drawn) [A-10] |  |
| 150 °C | C[N+](C)(CC(=O)c1ccccc1)C1CCCCC1.O=C([O-])/C=C\C(=O)O [A-40] | 1.9 |
| 150 °C | CCCCCCCCCCCC[N+](C)(C)CC(=O)c1ccccc1.O=C([O-])/C=C\C(=O)O [A-18] | 1.9 |
| 155 °C | O=C(O)CN(CC(=O)O)c1ccc(C(F)(F)F)cc1 [A-6] |  |
| 150 °C | CCCCCCCC[N+](C)(C)CC(=O)c1ccccc1.O=C([O-])/C=C\C(=O)O [A-39] | 1.9 |
| 190 °C | C=CCN(CC(=O)O)CC(=O)O [A-17] |  |
| Higher than 200 °C | O=C(O)CN(CCN(CC(=O)O)CC(=O)O)CC(=O)O [X-8, reference compound] |  |
| Higher than 200 °C | C=Cc1ccc(NCC(=O)O)cc1 [X-5, reference compound] |  |
| Higher than 200 °C | O=C(O)CNc1ccccc1 [X-6, reference compound] |  |
| 140 °C | CC(C)(c1ccc(N(CC(=O)O)CC(=O)O)cc1)c1ccc(N(CC(=O)O)CC(=O)O)cc1 [A-9] |  |
| 140 °C | CCCCCCCCCCCC[N+](C)(C)CC(=O)c1ccc2ccccc2c1.O=C([O-])/C=C\C(=O)O [A-23] | 1.9 |
| 155 °C | CC(=O)c1ccc(N(CC(=O)O)CC(=O)O)cc1 [A-7] |  |
| 150 °C | C[N+](C)(CC(=O)c1ccccc1)Cc1ccccc1.O=C([O-])/C=C\C(=O)O [A-41] | 1.9 |
| 80 °C | CCC(O)C[N+](C)(C)[N-]C(=O)c1ccccc1OC (stereo not drawn) [X-1, reference compound] |  |
| 155 °C | O=C(O)CN(CC(=O)O)c1cc(C(F)(F)F)cc(C(F)(F)F)c1 [A-5] |  |
| 145 °C | O=C(O)CN(CC(=O)O)c1ccc(Cc2ccc(N(CC(=O)O)CC(=O)O)cc2)cc1 [A-8] |  |
| 150 °C | CCCCC(CC)C[N+](C)(C)CC(=O)c1ccccc1.O=C([O-])/C=C\C(=O)O (stereo not drawn) [A-42] | 1.9 |
| Higher than 200 °C | CN(CC(=O)O)CC(=O)O [X-7, reference compound] |  |
| Higher than 200 °C | C=C(C)C(=O)OC(CO)N(CC(=O)O)c1ccccc1 (stereo not drawn) [X-4, reference compound] |  |
